This note sets out measurements from ChEMBL document CHEMBL1201862, “PubChem BioAssay data set” (2004).

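Dose response: 5 concentrations. Exposure: 48 h. Format: 96-well plates. Endpoint: linear interpolation; highest concentration if not reached. Abbreviation: GI50, concentration required for 50% inhibition of growth.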 The source made the active and inactive calls. Cut-off read from the data, not from the text of the source: active = GI50 up to about 1.1 µM and inactive = higher. A value given as a limit tells only on which side of the number the result lay.

Common to all, as to assay: NCI anticancer screen, dose series, 48 h
The subject of assay [1] is COLO 205.
For assay [2], the system named is EKVX.
The subject of assay [3] is HCT-116.
For assay [4], the system named is HCT-15.
Assay [5] deals with HOP-92.
Assay [6] deals with Hs-578T.
For assay [7], the system named is LOX IMVI.
The subject of assay [8] is MDA-N.
For assay [9], the system named is NCI-H23.
Assay [10] concerns NCI-H522.
Assay [11] deals with OVCAR-3.
For assay [12], the system named is OVCAR-8.
The test system of assay [13] is PC-3.
Assay [14] deals with RPMI-8226.
The test system of assay [15] is RXF 393.
Assay [16] relates to SF-539.
For assay [17], the system named is SK-MEL-2.
Assay [18] has as its system SNB-75.
The subject of assay [19] is UACC-62.

Consider `O=C(O)c1ccc(NCc2nc3cc4ccccc4cc3[nH]2)cc1`, for which the GI50 in assay [1] is > 100 µM (inactive); in assay [2] it was > 100 µM (inactive); in assay [3], > 100 µM (inactive); in [4] it was 26.7 µM; in [5] it was > 100 µM (inactive); in assay [6], > 100 µM (inactive). Moreover, the GI50 in assay [7], in [8], in assay [9], in assay [10], in assay [11] and in assay [12] was > 100 µM (inactive) in each case. Besides, the GI50 in assay [13] was > 100 µM (inactive); in assay [14], > 100 µM (inactive); in assay [15] it was > 100 µM (inactive); in assay [16], > 100 µM (inactive); in assay [17] it was 24.7 µM (inactive); in assay [18], 98.6 µM (inactive). Moreover, in [19], the GI50 was > 100 µM (inactive).
`CCN(CC)c1ccc2cc(-c3nc4ccccc4n3C)c(=O)oc2c1`: the GI50 is 0.315 µM (active) in [1]; 0.204 µM (active) in assay [3]; 0.17 µM in [4]; 0.873 µM (active) in [5]; 0.269 µM (active) in assay [6]; 0.495 µM (active) in [7]. Also, the GI50 in assay [8] was 0.0259 µM (active); in assay [9] it was 0.334 µM (active); in assay [10] it was 0.205 µM (active); in assay [11], 0.24 µM (active); in assay [12] it was 0.497 µM (active); in [13], 0.2 µM (active). The GI50 is 0.33 µM (active) in assay [14]; 1.74 µM (inactive) in assay [15]; 0.222 µM (active) in assay [16]; 0.255 µM (active) in assay [17]; 0.0177 µM (active) in [18]; 0.231 µM (active) in [19].
For `O=C(O)/C=C\C(=O)Nc1ccc2c(c1)C(=O)c1cc(F)ccc1-2`, the GI50 in [1] is > 100 µM (inactive); in assay [2], > 100 µM (inactive); in [3] it was > 100 µM (inactive); in assay [4], > 100 µM; in assay [5] it was > 100 µM (inactive); in assay [6] it was 54.3 µM (inactive). Besides, the GI50 in assay [7] was > 100 µM (inactive); in assay [8], > 100 µM (inactive); in assay [9] it was > 100 µM (inactive); in [10], 56.2 µM (inactive); in assay [11], > 100 µM (inactive); in [12] it was > 100 µM (inactive). For the same molecule, the GI50 in assay [13], in assay [14], in assay [15], in assay [16], in assay [17] and in assay [18] was > 100 µM (inactive) each time. The GI50 in [19] was > 100 µM (inactive).
`O=C1OCC2=C1C(c1ccc3c(c1)OCO3)c1cc3c(cc1O2)OCO3` (stereo unspecified): the GI50 in assay [1] is 0.44 µM (active); in assay [2] it was 1.72 µM (inactive); in assay [3], 0.436 µM (active); in assay [4] it was 0.346 µM; in [5], 14.4 µM (inactive); in [6], 0.865 µM (active). The GI50 in assay [7] was 0.507 µM (active); in assay [8], 0.0782 µM (active); in assay [9] it was 1.29 µM (inactive); in [10] it was 0.262 µM (active); in [11], 2.72 µM (inactive); in [12], 1.11 µM (active). For the same molecule, the GI50 in assay [13] is 0.59 µM (active); in assay [14], 0.378 µM (active); in assay [15], 0.828 µM (active); in assay [16], 0.522 µM (active); in assay [17], 0.375 µM (active); in [18], 0.5 µM (active). Besides, the GI50 in assay [19] is 0.364 µM (active).
As for `CC(=O)OC1=CC(n2cc(F)c(=O)[nH]c2=O)OC(C)C1=O` (stereo unspecified), the GI50 in assay [1] is 15.3 µM (inactive); in assay [2] it was > 88.5 µM (inactive); in [3] it was 10.8 µM (inactive); in assay [4], 8.95 µM; in [5], > 33.2 µM (inactive); in assay [6], > 88.3 µM (inactive). Also, the GI50 is 14.6 µM (inactive) in assay [7]; 15.2 µM (inactive) in [8]; 19.1 µM (inactive) in assay [9]; > 95.5 µM (inactive) in [10]; 25.3 µM (inactive) in assay [11]; 40.7 µM (inactive) in assay [12]. Moreover, the GI50 in [13] was 53 µM (inactive); in assay [14], 26.5 µM (inactive); in assay [15], 55.3 µM (inactive); in assay [16], 3.01 µM (inactive); in assay [17], > 100 µM (inactive); in assay [18], 51.1 µM (inactive). The GI50 in [19] was 24.9 µM (inactive).
On to `CSC1=N/C(=C\c2ccc(C)cc2)C(=O)N1`, for which the GI50 in assay [1] is > 100 µM (inactive); in assay [2] it was 52.8 µM (inactive); in assay [3], 40.6 µM (inactive); in [4], > 100 µM; in assay [5] it was 50.9 µM (inactive); in [6], 32.6 µM (inactive). The GI50 in [7] is 57.3 µM (inactive); in assay [8] it was > 100 µM (inactive); in assay [9], 51.8 µM (inactive); in assay [10], 34.1 µM (inactive); in assay [11], > 100 µM (inactive); in [12], 95.3 µM (inactive). The GI50 is 94.6 µM (inactive) in [13]; > 100 µM (inactive) in [14]; 26.4 µM (inactive) in [15]; 41.9 µM (inactive) in [16]; > 100 µM (inactive) in assay [17]; 47.4 µM (inactive) in assay [18]. For the same molecule, the GI50 in assay [19] is 89.3 µM (inactive).
`CN1CCc2cc3c(c4c2C1C(O)c1ccccc1-4)OCO3` (stereo unspecified): the GI50 in assay [1] is 4.95 µM (inactive); in assay [2], 7.83 µM (inactive); in assay [3], 3.68 µM (inactive); in [4], 3.59 µM; in [5], 2.16 µM (inactive); in [6], 3.19 µM (inactive). Further, the GI50 was 4.25 µM (inactive) in assay [7]; 5.08 µM (inactive) in [8]; 12 µM (inactive) in assay [9]; 2.93 µM (inactive) in assay [10]; 14.4 µM (inactive) in [11]; 7.53 µM (inactive) in [12]. Besides, the GI50 is 5.37 µM (inactive) in [13]; 7.01 µM (inactive) in assay [14]; 2.52 µM (inactive) in [15]; 4.72 µM (inactive) in assay [16]; 9.59 µM (inactive) in assay [17]; 12.6 µM (inactive) in [18]. Further, the GI50 in assay [19] is 8.22 µM (inactive).
Consider `Cc1ccc2c(c1)Sc1ccc(/N=N/N(C)C)cc1N2C`, for which the GI50 in assay [1] is 78.9 µM (inactive); in assay [2], > 100 µM (inactive); in assay [3] it was > 100 µM (inactive); in assay [4], > 100 µM; in assay [5], 48.5 µM (inactive); in assay [6] it was > 100 µM (inactive). The GI50 in assay [7] is 35.8 µM (inactive); in assay [8] it was > 100 µM (inactive); in assay [9], > 100 µM (inactive); in assay [10] it was > 100 µM (inactive); in assay [11], 53.2 µM (inactive); in assay [12] it was > 100 µM (inactive). Also, the GI50 was 71.1 µM (inactive) in assay [13]; 59.4 µM (inactive) in assay [14]; > 100 µM (inactive) in assay [15]; > 100 µM (inactive) in assay [17]; > 100 µM (inactive) in assay [18]; > 100 µM (inactive) in assay [19].
In the case of `N=c1c2c(=S)n(-c3ccccc3)c(=S)n(-c3ccccc3)c2nc(SCCCN2CCCCC2)n1-c1ccccc1`, the GI50 in [1] was 1.77 µM (inactive); in assay [2], 1.98 µM (inactive); in [3], 1.73 µM (inactive); in assay [4] it was 1.55 µM; in assay [5], 1.78 µM (inactive); in assay [6], 2.79 µM (inactive). The GI50 in assay [7] is 0.91 µM (active); in [8], 1.77 µM (inactive); in [9], 1.98 µM (inactive); in assay [10], 1.53 µM (inactive); in assay [11] it was 1.65 µM (inactive); in assay [12], 1.85 µM (inactive). The GI50 was 1.66 µM (inactive) in [13]; 0.439 µM (active) in assay [14]; 1.64 µM (inactive) in assay [15]; 2.93 µM (inactive) in [16]; 1.94 µM (inactive) in assay [17]; 1.73 µM (inactive) in [18]. Further, the GI50 in assay [19] was 1.64 µM (inactive).
On to `CCOC(=O)c1sc(N)nc1N1CCCC1`, for which the GI50 in assay [1] was > 100 µM (inactive); in assay [2], > 100 µM (inactive); in assay [3], > 100 µM (inactive); in assay [4], > 100 µM; in assay [5], > 100 µM (inactive); in [6], > 100 µM (inactive). The GI50 in [7], in assay [8], in [9], in assay [10], in [11] and in assay [12] was > 100 µM (inactive) throughout. The GI50 is > 100 µM (inactive) in assay [13]; > 100 µM (inactive) in assay [14]; 0.942 µM (active) in [15]; > 100 µM (inactive) in [16]; > 100 µM (inactive) in [17]; > 100 µM (inactive) in [18]. For the same molecule, the GI50 in assay [19] was > 100 µM (inactive).
On to `Nc1ccc(-c2nc3ccc(F)cc3s2)cc1Cl`, for which the GI50 in assay [1] is > 100 µM (inactive); in [2], > 61.9 µM (inactive); in assay [4], > 100 µM; in [5], 24.9 µM (inactive); in assay [6], 32.9 µM (inactive); in [7] it was > 73.1 µM (inactive). Besides, the GI50 in assay [8] was > 100 µM (inactive); in [9], > 82 µM (inactive); in [10], > 70.5 µM (inactive); in assay [11], 0.126 µM (active); in assay [12] it was > 65.5 µM (inactive); in assay [13] it was > 100 µM (inactive). The GI50 in [14] is > 100 µM (inactive); in [15], > 41.5 µM (inactive); in assay [16], 53.5 µM (inactive); in assay [17], > 84.1 µM (inactive); in assay [18], 37 µM (inactive); in assay [19] it was > 69.8 µM (inactive).
